Laboratory results taken from EP0847397B1, “WATER-SOLUBLE C-RING ANALOGUES OF 20 (S)-CAMPTOTHECIN” (DR. REDDY'S RESEARCH FOUNDATION, priority 1996, dated 1997).

Assays:
[1] = system: HOP 62; experiment: NCI in vitro 60 human tumor cell line assay; type: cell-based; conditions: HOP 62, NSLC, 48h, read-out: Total Growth Inhibition (TGI)
[2] = system: SK OV3; experiment: NCI in vitro 60 human tumor cell line assay; type: cell-based; conditions: SK-OV-3, SK OV3, OVARIAN, 48h, read-out: Total Growth Inhibition (TGI)
Method: (§1) Each test compound was screened against a battery of 60 human cell lines obtained from eight organs. In a typical procedure, the cell suspensions that were diluted according to the particular cell type and the expected target cell density (5000-40,000 cells per well based on cell growth characteristics) were added into 96-well microtiter plates. Inoculates were allowed a preincubation period of 24h at 37°C. for stabilization. Dilutions at twice the intended test concentrations were added at time zero in 100-µl aliquots to microtiter plate wells. Usually test compounds were evaluated at five 10-fold dilutions. The highest well concentration used in the test is 10^-4M. The cells are then incubated in the presence of drug (the test compound) for further 48h in 5% CO2 atmosphere and 100% humidity. At the end of this time, the adherent cells are fixed to the plate by means of trichloroacetic acid, and after a number of washes, the cell layer is treated with the protein stain Sulforhodamine B. The optical density which is proportional to protein mass, is then read by automated spectrophotometric plate readers at a wavelength of 515 nm.

[3] = system: CAKI; experiment: NCI in vitro 60 human tumor cell line assay; type: cell-based; conditions: CAKI, RENAL CANCER, 48h, read-out: Total Growth Inhibition (TGI)
Method: (§2) Each test compound was screened against a battery of 60 human cell lines obtained from eight organs. In a typical procedure, the cell suspensions that were diluted according to the particular cell type and the expected target cell density (5000-40,000 cells per well based on cell growth characteristics) were added into 96-well microtiter plates. Inoculates were allowed a preincubation period of 24h at 37°C. for stabilization. Dilutions at twice the intended test concentrations were added at time zero in 100-µl aliquots to microtiter plate wells. Usually test compounds were evaluated at five 10-fold dilutions. The highest well concentration used in the test is 10^-4M. The cells are then incubated in the presence of drug (the test compound) for further 48h in 5% CO2 atmosphere and 100% humidity. At the end of this time, the adherent cells are fixed to the plate by means of trichloroacetic acid, and after a number of washes, the cell layer is treated with the protein stain Sulforhodamine B. The optical density which is proportional to protein mass, is then read by automated spectrophotometric plate readers at a wavelength of 515 nm. Readings are transferred to a microcomputer and final reports are generated using especially developed software.

[4] = system: H 460; experiment: NCI in vitro 60 human tumor cell line assay; type: cell-based; conditions: H 460, NSLC, 48h
Method: as §2

[5] = system: H 322M; experiment: NCI in vitro 60 human tumor cell line assay; type: cell-based; conditions: NCI-H322M, H 322M, NSLC, 48h, read-out: Total Growth Inhibition (TGI)
Method: as §2

[6] = system: H 522; experiment: NCI in vitro 60 human tumor cell line assay; type: cell-based; conditions: NCI-H522, H 522, NSLC, 48h, read-out: Total Growth Inhibition (TGI)
Method: as §2

[7] = system: COLO 205; experiment: NCI in vitro 60 human tumor cell line assay; type: cell-based; conditions: COLO 205, COLON CANCER, 48h, read-out: Total Growth Inhibition (TGI)
Method: as §2

[8] = system: BT 549; experiment: NCI in vitro 60 human tumor cell line assay; type: cell-based; conditions: BT 549, BREAST, 48h, read-out: Total Growth Inhibition (TGI)
Method: as §2

[9] = system: MCF 7; experiment: NCI in vitro 60 human tumor cell line assay; type: cell-based; conditions: MCF7, MCF 7, BREAST, 48h, read-out: Total Growth Inhibition (TGI)
Method: as §2

[10] = system: MCF 7/ ADR; experiment: NCI in vitro 60 human tumor cell line assay; type: cell-based; conditions: MCF 7/ ADR, BREAST, 48h
Method: as §2

[11] = system: OVCAR 8; experiment: NCI in vitro 60 human tumor cell line assay; type: cell-based; conditions: OVCAR 8, OVARIAN, 48h, read-out: Total Growth Inhibition (TGI)
Method: as §1

[12] = system: MOLT 4; experiment: NCI in vitro 60 human tumor cell line assay; type: cell-based; conditions: MOLT 4, […], 48h, read-out: Total Growth Inhibition (TGI)
Method: as §2

[13] = system: MDA-MB-435; experiment: NCI in vitro 60 human tumor cell line assay; type: cell-based; conditions: MDA-MB-435, BREAST, 48h, read-out: Total Growth Inhibition (TGI)
[14] = system: H 23; experiment: NCI in vitro 60 human tumor cell line assay; type: cell-based; conditions: NCI-H23, H 23, NSLC, 48h, read-out: Total Growth Inhibition (TGI)
Method: as §2

[15] = system: A 498; experiment: NCI in vitro 60 human tumor cell line assay; type: cell-based; conditions: A498, A 498, RENAL CANCER, 48h, read-out: Total Growth Inhibition (TGI)
Method: as §2

[16] = system: HT 29; experiment: NCI in vitro 60 human tumor cell line assay; type: cell-based
Method: as §2

[17] = system: SF 268; experiment: NCI in vitro 60 human tumor cell line assay; type: cell-based; conditions: SF-268, 48 h, read-out: Total Growth Inhibition (TGI)
Method: as §1

[18] = system: MCF7 / ADR / RES; experiment: NCI in vitro 60 human tumor cell line assay; type: cell-based; conditions: MCF7 / ADR / RES, BREAST CANCER, 48h, read-out: Total Growth Inhibition (TGI)
Method: as §2

[19] = system: HCT 15; experiment: NCI in vitro 60 human tumor cell line assay; type: cell-based; conditions: HCT 15, COLON CANCER, 48h, read-out: Total Growth Inhibition (TGI)
Method: as §2

[20] = system: T 47D; experiment: NCI in vitro 60 human tumor cell line assay; type: cell-based; conditions: T47D, T 47D, BREAST, 48h, read-out: Total Growth Inhibition (TGI)
Method: as §2

[21] = system: KM 12; experiment: NCI in vitro 60 human tumor cell line assay; type: cell-based; conditions: KM12, KM 12, COLON CANCER, 48h, read-out: Total Growth Inhibition (TGI)
Method: as §2

[22] = system: HCT 116; experiment: NCI in vitro 60 human tumor cell line assay; type: cell-based; conditions: HCT 116, COLON CANCER, 48h, read-out: Total Growth Inhibition (TGI)
[23] = system: 786-O; experiment: NCI in vitro 60 human tumor cell line assay; type: cell-based; conditions: 786-0, 786-O, RENAL CANCER, 48h, read-out: Total Growth Inhibition (TGI)
Method: as §1

[24] = system: H 226; experiment: NCI in vitro 60 human tumor cell line assay; type: cell-based; conditions: NCI-H226, H 226, NSLC, 48h, read-out: Total Growth Inhibition (TGI)
Method: as §2

[25] = system: EKVX; experiment: NCI in vitro 60 human tumor cell line assay; type: cell-based; conditions: NSLC, 48h, read-out: Total Growth Inhibition (TGI)
Method: as §2

[26] = system: SN12C; experiment: NCI in vitro 60 human tumor cell line assay; type: cell-based; conditions: RENAL CANCER, 48h, read-out: Total Growth Inhibition (TGI)
Method: as §2

[27] = NCI in vitro 60 human tumor cell line assay; type: cell-based; conditions: HCT 166, COLON CANCER, 48h, read-out: Total Growth Inhibition (TGI)
Method: as §2

[28] = system: HCC 2998; experiment: NCI in vitro 60 human tumor cell line assay; type: cell-based; conditions: HCC 2998, COLON CANCER, 48h
Method: as §2

[29] = system: RXF 393; experiment: NCI in vitro 60 human tumor cell line assay; type: cell-based; conditions: RXF 393, RENAL CANCER, 48h, read-out: Total Growth Inhibition (TGI)
Method: as §2

[30] = system: HOP 92; experiment: NCI in vitro 60 human tumor cell line assay; type: cell-based; conditions: HOP 92, NSLC, 48h, read-out: Total Growth Inhibition (TGI)
[31] = system: U 251; experiment: NCI in vitro 60 human tumor cell line assay; type: cell-based; conditions: U 251, CNS, 48h, read-out: Total Growth Inhibition (TGI)
Method: as §2

[32] = system: SF 295; experiment: NCI in vitro 60 human tumor cell line assay; type: cell-based; conditions: SF 295, CNS, 48h, read-out: Total Growth Inhibition (TGI)
Method: as §2

[33] = system: UO 31; experiment: NCI in vitro 60 human tumor cell line assay; type: cell-based; conditions: UO 31, RENAL, 48h, read-out: Total Growth Inhibition (TGI)
Method: as §2

[34] = system: ACHN; experiment: NCI in vitro 60 human tumor cell line assay; type: cell-based; conditions: RENAL CANCER, 48h, read-out: Total Growth Inhibition (TGI)
Method: as §2

[35] = compared with 20(RS)-camptothecin of the formula 8; cited from earlier work
[36] = molecular target: topoisomerase I (Homo sapiens, UniProt P11387); conditions: result in words; cited from earlier work
Sequence of topoisomerase I (P11387 whole entry): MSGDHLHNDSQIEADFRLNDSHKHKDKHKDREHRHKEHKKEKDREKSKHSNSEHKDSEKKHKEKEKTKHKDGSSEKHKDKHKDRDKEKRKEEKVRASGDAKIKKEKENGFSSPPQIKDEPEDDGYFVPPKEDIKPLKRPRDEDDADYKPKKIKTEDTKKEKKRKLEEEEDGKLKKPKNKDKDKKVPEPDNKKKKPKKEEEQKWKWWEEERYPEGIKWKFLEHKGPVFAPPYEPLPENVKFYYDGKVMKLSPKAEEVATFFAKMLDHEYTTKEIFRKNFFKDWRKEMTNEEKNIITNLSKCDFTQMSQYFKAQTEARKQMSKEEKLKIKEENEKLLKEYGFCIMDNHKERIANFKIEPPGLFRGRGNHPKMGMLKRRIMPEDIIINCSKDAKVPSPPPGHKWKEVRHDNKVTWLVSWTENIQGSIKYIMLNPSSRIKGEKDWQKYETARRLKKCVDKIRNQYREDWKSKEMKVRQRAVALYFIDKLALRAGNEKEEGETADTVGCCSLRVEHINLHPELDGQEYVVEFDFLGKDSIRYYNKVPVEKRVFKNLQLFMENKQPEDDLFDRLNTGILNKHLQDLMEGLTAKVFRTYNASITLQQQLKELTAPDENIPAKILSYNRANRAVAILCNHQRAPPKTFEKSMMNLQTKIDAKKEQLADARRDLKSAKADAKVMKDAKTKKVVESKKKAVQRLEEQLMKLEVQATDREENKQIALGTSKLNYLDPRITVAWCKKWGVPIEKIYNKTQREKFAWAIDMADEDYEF

In the case of `CC[C@@]1(O)C(=O)OCc2c1cc1n(c2=O)Cc2cc3c(CN(C)C)c(O)ccc3nc2-1` [TOPOTECAN, topotecan, reference compound], the IC (TGI) [1] is reported as 0.04 µM, the IC (TGI) [2] is reported as 5.12 µM and the IC (TGI) [3] is reported as 0.51 µM. For the same compound, the “Total Growth Inhibition (TGI)” value [4] was 1.20 μm, the IC (TGI) ([4]; Homo sapiens, NCI-H460, read-out: Total Growth Inhibition (TGI)) was 1.2 µM and the IC (TGI) [5] was 16.9 µM. The IC (TGI) [6] was 4.16 µM, the IC (TGI) [7] was 7.94 µM and the IC (TGI) [8] was over 100 µM. The IC (TGI) [9] was 100 µM, the IC (TGI) ([10]; Homo sapiens, NCI/ADR-RES, read-out: Total Growth Inhibition (TGI)) was 1.5 µM and the “Total Growth Inhibition (TGI)” value [10] was 1.5 μm. For the same compound, the IC (TGI) [11] was 18.2 µM, the IC (TGI) [12] was 1.2 µM and the IC (TGI) [13] was 2.5 µM. For the same compound, the IC (TGI) [14] was 0.87 µM, the IC (TGI) [15] was 1.69 µM and the “Total Growth Inhibition (TGI)” value [16] was 100 μm. It also gave an IC (TGI) ([16]; Homo sapiens, HT-29, 48 h, read-out: Total Growth Inhibition (TGI)) of over 100 µM, an IC (TGI) [17] of 56 µM and an IC (TGI) [18] of 1.5 µM. The IC (TGI) [19] was 44.6 µM, the IC (TGI) [20] was 1.8 µM and the IC (TGI) [21] was 6.45 µM. The IC (TGI) [22] was 2.51 µM, the IC (TGI) [23] was 0.12 µM and the IC (TGI) [24] was 11 µM. It also gave an IC (TGI) [25] of 100 µM, an IC (TGI) [26] of 1.58 µM and an IC (TGI) [27] of 2.51 µM. For the same compound, the “Total Growth Inhibition (TGI)” value [28] was 15.80 μm, the IC (TGI) ([28]; Homo sapiens, read-out: Total Growth Inhibition (TGI)) was 15.8 µM and the IC (TGI) [29] was 1.41 µM. The IC (TGI) [30] was 7.9 µM, the IC (TGI) [31] was 2.81 µM and the IC (TGI) [32] was 2.18 µM. The IC (TGI) [33] was 2.51 µM and the IC (TGI) [34] was 0.28 µM.

In the case of `CCc1c2c(nc3ccc(OC)cc13)-c1cc3c(c(=O)n1C2)COC(=O)[C@]3(N)CC` [formula 7, 7-ethyl-10-methoxycamptothecin derivative], the “in vivo antitumor activity” value [35] is given as “increased in vivo antitumor activity”.

For `C=C1C(=O)OCc2c1cc1n(c2=O)Cc2c-1nc1ccc(O)cc1c2CC` [formula 9, 18-noranhydrocamptothecin analogue], the “inhibition of topoisomerase I activity” value [36] is listed as “potent camptothecin like inhibition of topoisomerase I activity”.
